Measurements: PubChem BioAssay (NCI)
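Following 48 hours of exposure in 96-well plates, responses at five concentrations were used to interpolate endpoints linearly. Definition used: TGI = concentration required for complete inhibition of growth.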

What was measured:
Assay in all cases: growth of human tumour cells (NCI), 48 h
BT-549 breast = test system: BT-549 breast
COLO 205 colon = test system: COLO 205 colon
HOP-92 NSCLC = test system: HOP-92 NSCLC
HT29 colon = test system: HT29 colon
OVCAR-4 ovarian = test system: OVCAR-4 ovarian
OVCAR-8 ovarian = test system: OVCAR-8 ovarian
SF-295 CNS = test system: SF-295 CNS
SF-539 CNS = test system: SF-539 CNS
SK-MEL-5 melanoma = test system: SK-MEL-5 melanoma
SNB-19 CNS = test system: SNB-19 CNS
SR leukemia = test system: SR leukemia
SW-620 colon = test system: SW-620 colon
UO-31 renal = test system: UO-31 renal
K-562 leukemia = test system: K-562 leukemia

Structure (SMILES)	TGI (BT-549 breast) [µM]	TGI (COLO 205 colon) [µM]	TGI (HOP-92 NSCLC) [µM]	TGI (HT29 colon) [µM]	TGI (OVCAR-4 ovarian) [µM]	TGI (OVCAR-8 ovarian) [µM]	TGI (SF-295 CNS) [µM]	TGI (SF-539 CNS) [µM]	TGI (SK-MEL-5 melanoma) [µM]	TGI (SNB-19 CNS) [µM]	TGI (SR leukemia) [µM]	TGI (SW-620 colon) [µM]	TGI (UO-31 renal) [µM]	TGI (K-562 leukemia) [µM]
CCOC(=O)C1C(c2ccc(OC)cc2)c2c([nH][nH]c2=O)CC1(O)OCC (centres undefined)	> 100	> 100	> 100	> 100	> 100	> 100	> 100	> 100	> 100	> 100	> 100	> 100	> 100	–
CNn1c(C)n[nH]c1=O	> 100	> 100	> 100	–	> 100	> 100	> 100	> 100	> 100	> 100	> 100	> 100	> 100	> 100
CCSC1=N/C(=C\c2ccco2)C(Cl)=N1	> 100	> 100	> 100	> 100	–	> 100	> 100	> 100	> 100	> 100	> 100	> 100	> 100	> 100
CN(/N=C/c1ccccn1)C1=NCCCCN1	> 100	> 100	> 100	> 100	> 100	> 100	> 100	> 100	> 100	> 100	> 100	> 100	> 100	> 100
Cc1ccc(S(=O)(=O)NC2C(=O)c3ccccc3C(=O)C2n2cnc3ccccc32)cc1 (centres undefined)	> 100	> 100	> 100	> 100	26.1	> 100	> 100	62.6	42.6	89.7	> 100	94.4	–	> 100
O=C(O)c1ccc2c(c1)CC1(C2)Cc2ccccc2C1=O (centres undefined)	> 100	> 100	> 100	> 100	> 100	> 100	> 100	> 100	> 100	> 100	> 100	> 100	> 100	> 100
CC(=O)OC1COC(n2c(-c3ccc(Cl)cc3)cc(-c3ccccc3)c(C#N)c2=S)C(OC(C)=O)C1OC(C)=O (centres undefined)	> 81.8	> 64.2	28.8	> 64.6	11.1	21.6	31.7	15.2	> 42.2	> 79.6	> 82.8	> 100	38.4	> 59.8
NC(N)=N/N=C/c1c(-c2ccc([N+](=O)[O-])cc2)nc2n1CCS2	34.2	7.8	40.5	31	27.7	29.2	36.7	32.3	32	11.4	5.71	7.33	30.2	22.6
COc1ccc(C2=C(N)c3c(OC)cccc3C2=O)cc1	> 100	> 100	–	> 100	> 100	> 100	> 100	41.3	–	> 100	> 100	> 100	> 100	> 100
COc1ccc(C(c2c[nH]c3ccc(Br)cc23)c2c[nH]c3ccc(Br)cc23)cc1	3.16	0.347	2.07	1.03	1.25	–	1.17	2.06	1.12	1.76	0.418	1.1	1.69	0.423
COC1CC(OC2CCC3(C)C(CCC45CCC(C6=CC(=O)OC6)C(C)(CCC43)C5=O)C2)OC(C)C1O (centres undefined)	55.3	> 100	> 100	> 100	–	> 100	> 100	63.3	41.9	63.6	71.8	> 100	35.8	> 100
N#Cc1sc2c(c1OC(=O)c1cccs1)c(=O)n(-c1ccccc1)c(=S)n2-c1ccccc1	77.8	42.5	–	> 100	73.5	81.6	55.8	49.6	29.5	> 100	71.4	84.6	32.7	83.4
COc1ccc2cc(/C=N\NC(=O)Nc3cccc4ccccc34)ccc2c1	> 100	> 100	–	> 100	72.1	> 100	–	> 100	> 100	53.5	29.6	> 100	> 100	36.5
O=c1c2cccnc2cc(-c2ccccc2)n1CCO	> 100	> 100	–	> 100	> 100	> 100	> 100	–	> 100	> 100	> 100	> 100	> 100	> 100
O=c1oc2ccccc2nc1/C=C(\O)c1ccc([N+](=O)[O-])cc1	> 100	> 100	–	> 100	> 100	> 100	> 100	> 100	> 100	> 100	> 100	–	> 100	> 100
Nc1cn(Cc2ccccc2)c2nc(/C=C3/C=CC=CC3=O)c(O)n12	> 100	> 100	> 100	> 100	> 100	> 100	> 100	> 100	> 100	> 100	–	> 100	> 100	> 100
Cc1cccc(C)c1NC(=S)NC=C(C(N)=O)C(N)=O	> 100	> 100	> 100	> 100	> 100	> 100	> 100	> 100	> 100	> 100	–	> 100	> 100	> 100
NNc1nc2ccccc2s1	> 100	> 100	> 100	> 100	> 100	> 100	–	> 100	> 100	> 100	> 100	> 100	> 100	> 100
